Experiments:
[1] = tested on: CRE-GFP 293 cells; assay: CRE-GFP 293 reporter cell assay (flow cytometry); assay type: cell-based, Human; conditions: 0.5–2 μM for 5 h
From the text: Using the pCRE-MetLuc2-Reporter plasmid (Clontech, Mountain View, CA, USA) as a template, the DNA fragment containing the cAMP response element (CRE) motifs and TATA-like promoter (PTAL) flanked by MluI and AgeI restriction sites was amplified by PCR using sense ([…], MluI site underlined) and antisense ([…], AgeI site underlined) primers. The amplified CRE-PTAL promoter fragment was cloned into pGEM-T Easy (Promega, Madison, WI, USA) and sequenced. The CRE-PTAL-containing MluI/AgeI fragment and GFP-containing AgeI/NotI fragment (from pEGFP-N1; Clontech) were subcloned into MluI- and NotI-digested pcDNA5/FRT/TO (Novagen, Madison, WI, USA). The resulting construct with CRE-PTAL-driving GFP was used to establish 293 GFP reporter cells by targeting insertion into Flp-In-293 cells according to the supplier's instructions (Invitrogen). The cells were grown in a medium containing 5 μg/ml blasticidin and 100 μg/ml hygromycin.
(§1) On day 1, CRE-GFP 293 cells were seeded into 48-well plates (5 × 10^4/well). After 24 h, cells were treated with Ca^2+ ionophore (2 μM) (Sigma-Aldrich) for 0–24 h. Cell viability was measured using 3,(4,5-dimethylthiazol-2-yl)-2,5-diphenyltetrazolium bromide (MTT) assay (Sigma-Aldrich). The absorbance of the insoluble purple formazan dye was quantified at 570 nm on a μQuant microplate spectrophotometer (Bio-Tek). In addition, the cells were treated with the Ca^2+ ionophore A23187 (0.5–10 μM) (Sigma-Aldrich) for 5 h, followed by analysis of GFP fluorescence by flow cytometry (Becton–Dickinson, Franklin Lakes, NJ, USA) with excitation/emission wavelengths at 488/507 nm. To monitor CREB activation, cells were treated with forskolin or coumarin-chalcone derivatives (5–10 μM) in the presence or absence of Ca^2+ ionophore (2 μM) for 5 h, and GFP fluorescence was analysed.
To monitor the cAMP-mediated signal transduction pathway, CRE-GFP 293 cells in 6-well plates (1 × 10^6/well) were pretreated with kinase inhibitor H-89 (LC Laboratories, Woburn, MA, USA), KN-62 (Cayman Chemical, Ann Arbor, MI, USA), U0126 (LC Laboratories), or wortmannin (LC Laboratories) (10 μM) for 4 h before forskolin or LM-021 (10 μM) addition for 5 h. GFP fluorescence/protein and total/phosphorylated PKA, CaMKII, ERK, PI3K, and CREB levels were examined. In addition, Aβ-GFP or ∆K280 tauRD-DsRed SH-SY5Y cells were treated with retinoic acid (10 μM) on day 1, followed by the addition of LM-021 (5 or 10 μM) and doxycycline (5 or 2 μg/ml) on day 2, as described. Kinase inhibitors (10 μM) were added on day 6. On day 8, the cells were collected for protein expression analysis of BDNF, BCL2 (BCL2 apoptosis regulator), and BAX (BCL2 associated X, apoptosis regulator), and total/phosphorylated PKA, CaMKII, ERK, PI3K, and CREB. Also, cells were stained with DAPI and assessed for neurite outgrowth as described above.

[2] = tested on: CRE-GFP 293 cells; assay: MTT cell viability of CRE-GFP 293 cells; assay type: cell-based, Human; conditions: 2 μM for 3–6 h
Experimental: as §1

[3] = in vivo, po; cited from earlier work

CNc1ccc2oc(C[C@H]3O[C@@]4(CC[C@H]3C)O[C@H]([C@H](C)C(=O)c3ccc[nH]3)[C@H](C)C[C@H]4C)nc2c1C(=O)O [Ca^2+ ionophore]
CRE-motif-driven GFP expression [1]: stimulated | Cell viability (MTT) [2]: No significant cell death

N[C@@H](Cc1ccc(O)c(O)c1)C(=O)O [levodopa]
Share of orally administered dose that enters the brain [3]: about 1%
